Like-named read-outs stand apart in the source and are kept apart here.
Molecular target: mAChR M1 (Homo sapiens, UniProt P11229)
Experiment: In vitro cellular calcium flux assay, positive allosteric modulation of mAChR M1
Type: cell-based
Method: Baby hamster kidney cells stably expressing human or rat mAChR M1 to M5 were utilised for primary and selectivity profiling activities. mAChR M2 and M4 cell lines also stably expressed the chimeric Gαqi5 G-protein.
Human mAChR M1, M3, M5 and rat M1 cells were grown in low glucose Dulbecco's Modified Eagle's Medium (DMEM) medium plus heat inactivated 10% fetal bovine serum (HI FBS) and 500 μg/ml hygromycin B^1. Human mAChR M2 and M4 cells were maintained as above with^2 the addition of 500 μg/ml G418 to the media. Cells were maintained in culture at 37° C./5% CO2 and passaged twice weekly by treatment with 0.05% Trypsin/EDTA detachment solution, centrifugation (200 g, 5 min) and re-suspension in fresh media. Following cell expansion, cells were cryopreserved at −80° C. by treatment with 0.05% Trypsin/EDTA detachment solution, centrifugation (200 g, 5 min) and re-suspension of the pellet in freezing media (90% HI FBS/10% DMSO^3) at 15E6 cells/ml^4.
Prior to assaying, cells were prepared by thawing at 37° C. in a water bath, centrifugation (200 g, 5 min) and re-suspension of the pellet in fresh media. 15000 cells per well were seeded in black, clear bottomed 384-well Greiner Bio-One plates in plating medium (DMEM/10% HI FBS) and incubated overnight at 37 C/5% CO2.
On the day of the assay, media was removed from each well and replaced with 50 μl^5 assay buffer (HBSS with 20 mM HEPES and 2.5 mM Probenecid) containing the calcium indicator, Calcium 4 (Molecular Devices). Cells were then incubated at 37° C./5% CO2 for 30 min and at room temperature.
Compound preparation was carried out by generation of 11-point, 1 in 3 serial dilution concentration response curves in 100% DMSO. Compound was then diluted 1 in 65^6 with assay buffer (HBSS with 20 mM HEPES and 2.5 mM Probenecid) prior to the addition of 10 ul^7 to the cells using a Tetra fluorometric imaging plate reader (Molecular Devices)^8. Compound driven increases in intracellular calcium flux was measured as an increase in fluorescence (494Ex, 516Em)^9.
Positive allosteric modulator pEC50 values and antagonist pIC50 values for each compound were then determined. […] The points of modification and the alternate reagents, concentrations or equipment employed in these examples were: ^1200 μg/ml hygromycin B; ^2G418 not added; ^3CELLBANKER 1; ^410E6; ^5 40 μl; ^6 1 in 99; ^7 20 μl; ^8FDSS6000 (Hamamatsu Photonics); ^9(480Ex, 540Em); ^10Spotfire (TIBCO).

[1] = BHK cells expressing mAChR M1, EC20 carbachol, Examples 76-80 and 82-89 slightly modified procedure

Sequence of mAChR M1 (P11229 whole entry, looked up): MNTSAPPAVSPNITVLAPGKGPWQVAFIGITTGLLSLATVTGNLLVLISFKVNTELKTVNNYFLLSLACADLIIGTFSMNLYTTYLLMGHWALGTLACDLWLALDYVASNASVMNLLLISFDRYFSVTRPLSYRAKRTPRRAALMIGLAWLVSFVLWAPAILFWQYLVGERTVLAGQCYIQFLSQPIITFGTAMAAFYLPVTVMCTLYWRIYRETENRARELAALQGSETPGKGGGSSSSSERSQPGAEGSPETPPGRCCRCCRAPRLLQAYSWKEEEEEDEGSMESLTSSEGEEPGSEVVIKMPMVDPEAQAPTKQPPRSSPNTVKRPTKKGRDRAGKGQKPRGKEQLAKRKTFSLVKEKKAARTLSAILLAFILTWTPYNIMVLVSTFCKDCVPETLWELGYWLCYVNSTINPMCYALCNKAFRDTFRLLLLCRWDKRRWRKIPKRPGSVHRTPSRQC

`O=C(N[C@@H]1CCOC[C@H]1O)c1cn(Cc2cccc(F)c2)c2c(Cl)ccnc12` (single isomer, unassigned) [Example 86, 7-Chloro-1-(3-fluorobenzyl)-N-(trans-3-hydroxytetrahydro-2H-pyran-4-yl)-1H-pyrrolo[3,2-b]pyridine-3-carboxamide] gave an EC50 of 25.1 nM.
In the case of `Cc1ccc(Cn2cc(C(=O)N[C@H]3CCCC[C@@H]3O)c3ncccc32)cc1` [Example 1, N-((1S,2S)-2-hydroxycyclohexyl)-1-(4-methylbenzyl)-1H-pyrrolo[3,2-b]pyridine-3-carboxamide], the “pEC50 for positive allosteric modulation” value [1] is reported as 7.0.
In the case of `O=C(N[C@H]1CCCC[C@@H]1O)c1cn(Cc2cc(F)cc(F)c2)c2cccnc12` [Example 2, 1-(3,5-Difluorobenzyl)-N-((1S,2S)-2-hydroxycyclohexyl)-1H-pyrrolo[3,2-b]pyridine-3-carboxamide], the “pEC50 for positive allosteric modulation” value [1] is reported as 6.7.
For `O=C(N[C@H]1CCCC[C@@H]1O)c1cn(Cc2cc(F)ccc2F)c2cccnc12` [Example 3, 1-(2,5-Difluorobenzyl)-N-((1S,2S)-2-hydroxycyclohexyl)-1H-pyrrolo[3,2-b]pyridine-3-carboxamide], the “pEC50 for positive allosteric modulation” value [1] was 6.8.
In the case of `O=C(N[C@H]1CCCC[C@@H]1O)c1cn(Cc2cccc(F)c2)c2cccnc12` [Example 4, 1-(3-Fluorobenzyl)-N-((1S,2S)-2-hydroxycyclohexyl)-1H-pyrrolo[3,2-b]pyridine-3-carboxamide], the “pEC50 for positive allosteric modulation” value [1] is reported as 6.8.
For `Cc1nc(Cn2cc(C(=O)N[C@H]3CCCC[C@@H]3O)c3ncccc32)cs1` [Example 7, N-((1S,2S)-2-Hydroxycyclohexyl)-1-((2-methylthiazol-4-yl)methyl)-1H-pyrrolo[3,2-b]pyridine-3-carboxamide], the “pEC50 for positive allosteric modulation” value [1] was 5.9.
In the case of `O=C(N[C@H]1CCCC[C@@H]1O)c1cn(Cc2ccc(OC(F)(F)F)cc2)c2cccnc12` [Example 9, N-((1S,2S)-2-Hydroxycyclohexyl)-1-(4-(trifluoromethoxy)benzyl)-1H-pyrrolo[3,2-b]pyridine-3-carboxamide], the “pEC50 for positive allosteric modulation” value [1] is reported as 6.6.
For `O=C(N[C@H]1CCCC[C@@H]1O)c1cn(Cc2ccc(F)cc2)c2c(Cl)ccnc12` [Example 14, 7-Chloro-1-(4-fluorobenzyl)-N-((1S,2S)-2-hydroxycyclohexyl)-1H-pyrrolo[3,2-b]pyridine-3-carboxamide], the “pEC50 for positive allosteric modulation” value [1] was 7.3.
`O=C(N[C@H]1CCCC[C@@H]1O)c1cn(Cc2cccc(F)c2F)c2c(Cl)ccnc12` [Example 15, 7-Chloro-1-(2,3-difluorobenzyl)-N-((1S,2S)-2-hydroxycyclohexyl)-1H-pyrrolo[3,2-b]pyridine-3-carboxamide] was tested, and the “pEC50 for positive allosteric modulation” value [1] was 7.0.
`Cc1cccc(Cn2cc(C(=O)N[C@H]3CCCC[C@@H]3O)c3nccc(Cl)c32)n1` [Example 16, 7-Chloro-N-((1S,2S)-2-hydroxycyclohexyl)-1-((6-methylpyridin-2-yl)methyl)-1H-pyrrolo[3,2-b]pyridine-3-carboxamide] was tested, and the “pEC50 for positive allosteric modulation” value [1] was 6.5.
In the case of `O=C(N[C@H]1CCCC[C@@H]1O)c1cn(Cc2ccc(F)cn2)c2c(Cl)ccnc12` [Example 17, 7-Chloro-1-((5-fluoropyridin-2-yl)methyl)-N-((1S,2S)-2-hydroxycyclohexyl)-1H-pyrrolo[3,2-b]pyridine-3-carboxamide], the “pEC50 for positive allosteric modulation” value [1] is reported as 6.9.
With `O=C(NC1(CO)CCCC1)c1cn(Cc2ccc(F)cc2)c2cccnc12` [Example 21, 1-(4-Fluorobenzyl)-N-(1-(hydroxymethyl)cyclopentyl)-1H-pyrrolo[3,2-b]pyridine-3-carboxamide] the “pEC50 for positive allosteric modulation” value [1] was 5.7.
`O=C(N[C@H]1CCCC[C@@H]1O)c1cn(Cc2ccccc2F)c2cccnc12` [Example 22, 1-(2-Fluorobenzyl)-N-((1S,2S)-2-hydroxycyclohexyl)-1H-pyrrolo[3,2-b]pyridine-3-carboxamide] was tested, and the “pEC50 for positive allosteric modulation” value [1] was 6.5.
For `O=C(N[C@H]1CCCC[C@@H]1O)c1cn(Cc2ccc(Cl)cc2)c2cccnc12` [Example 23, 1-(4-Chlorobenzyl)-N-((1S,2S)-2-hydroxycyclohexyl)-1H-pyrrolo[3,2-b]pyridine-3-carboxamide], the “pEC50 for positive allosteric modulation” value [1] was 6.6.
With `O=C(N[C@H]1CCCC[C@@H]1O)c1cn(Cc2ccc(F)cc2F)c2cccnc12` [Example 24, 1-(2,4-Difluorobenzyl)-N-((1S,2S)-2-hydroxycyclohexyl)-1H-pyrrolo[3,2-b]pyridine-3-carboxamide] the “pEC50 for positive allosteric modulation” value [1] was 6.5.
`Cc1ccc(Cn2cc(C(=O)N[C@H]3CCCC[C@@H]3O)c3ncccc32)cn1` [Example 25, N-((1S,2S)-2-Hydroxycyclohexyl)-1-((6-methylpyridin-3-yl)methyl)-1H-pyrrolo[3,2-b]pyridine-3-carboxamide] was tested, and the “pEC50 for positive allosteric modulation” value [1] was 6.2.
With `Cc1ccc(Cn2cc(C(=O)N[C@H]3CCCC[C@@H]3O)c3ncccc32)nc1` [Example 26, N-((1S,2S)-2-Hydroxycyclohexyl)-1-((5-methylpyridin-2-yl)methyl)-1H-pyrrolo[3,2-b]pyridine-3-carboxamide] the “pEC50 for positive allosteric modulation” value [1] was 6.1.
In the case of `O=C(NC1CCOCC1)c1cn(Cc2ccc(F)cc2)c2cccnc12` [Example 29, 1-(4-Fluorobenzyl)-N-(tetrahydro-2H-pyran-4-yl)-1H-pyrrolo[3,2-b]pyridine-3-carboxamide], the “pEC50 for positive allosteric modulation” value [1] is reported as 5.8.
For `O=C(NC1CCNCC1)c1cn(Cc2ccc(F)cc2)c2cccnc12` [Example 30, 1-(4-Fluorobenzyl)-N-(piperidin-4-yl)-1H-pyrrolo[3,2-b]pyridine-3-carboxamide], the “pEC50 for positive allosteric modulation” value [1] was 6.5.
`CN1CCC(NC(=O)c2cn(Cc3ccc(F)cc3)c3cccnc23)CC1` [Example 31, 1-(4-Fluorobenzyl)-N-(1-methylpiperidin-4-yl)-1H-pyrrolo[3,2-b]pyridine-3-carboxamide] was tested, and the “pEC50 for positive allosteric modulation” value [1] was 6.5.
With `N#Cc1ccnc2c(C(=O)N[C@H]3CCCC[C@@H]3O)cn(Cc3ccc(F)cc3)c12` [Example 32, 7-Cyano-1-(4-fluorobenzyl)-N-((1S,2S)-2-hydroxycyclohexyl)-1H-pyrrolo[3,2-b]pyridine-3-carboxamide] the “pEC50 for positive allosteric modulation” value [1] was 6.7.
`COc1ccnc2c(C(=O)N[C@H]3CCCC[C@@H]3O)cn(Cc3ccc(F)cc3)c12` [Example 37, 1-(4-Fluorobenzyl)-N-((1S,2S)-2-hydroxycyclohexyl)-7-methoxy-1H-pyrrolo[3,2-b]pyridine-3-carboxamide] was tested, and the “pEC50 for positive allosteric modulation” value [1] was 6.7.
For `COc1ccc2c(n1)c(C(=O)N[C@H]1CCCC[C@@H]1O)cn2Cc1ccc(F)cc1` [Example 38, 1-(4-Fluorobenzyl)-N-((1S,2S)-2-hydroxycyclohexyl)-5-methoxy-1H-pyrrolo[3,2-b]pyridine-3-carboxamide], the “pEC50 for positive allosteric modulation” value [1] was 5.8.
`O=C(N[C@H]1CCCC[C@@H]1O)c1cn(Cc2ccc(F)cc2)c2ccc(Cl)nc12` [Example 39, 5-Chloro-1-(4-fluorobenzyl)-N-((1S,2S)-2-hydroxycyclohexyl)-1H-pyrrolo[3,2-b]pyridine-3-carboxamide] was tested, and the “pEC50 for positive allosteric modulation” value [1] was 6.0.
In the case of `Cc1ccc2c(n1)c(C(=O)N[C@H]1CCCC[C@@H]1O)cn2Cc1ccc(-n2cccn2)cc1` [Example 40, 1-(4-(1H-Pyrazol-1-yl)benzyl)-N-((1S,2S)-2-hydroxycyclohexyl)-5-methyl-1H-pyrrolo[3,2-b]pyridine-3-carboxamide], the “pEC50 for positive allosteric modulation” value [1] is reported as 6.5.
Compound `N#Cc1ccc2c(n1)c(C(=O)N[C@H]1CCCC[C@@H]1O)cn2Cc1ccc(-n2cccn2)cc1` [Example 41, 1-(4-(1H-Pyrazol-1-yl)benzyl)-5-cyano-N-((1S,2S)-2-hydroxycyclohexyl)-1H-pyrrolo[3,2-b]pyridine-3-carboxamide] has an EC50 (BHK cells expressing mAChR M1, EC20 carbachol, Examples 76-80 and 82-89 slightly modified procedure, read-out: pEC50 for positive allosteric modulation (converted)) of 316 nM.
In the case of `Cn1ccnc1-c1ccc(Cn2cc(C(=O)N[C@H]3CCCC[C@@H]3O)c3ncccc32)cc1` [Example 42, N-((1S,2S)-2-Hydroxycyclohexyl)-1-(4-(1-methyl-1H-imidazol-2-yl)benzyl)-1H-pyrrolo[3,2-b]pyridine-3-carboxamide], the “pEC50 for positive allosteric modulation” value [1] is reported as 7.0.
`Cc1cccc(-c2ccc(Cn3cc(C(=O)N[C@H]4CCCC[C@@H]4O)c4ncccc43)c(F)c2)n1` [Example 44, 1-(2-Fluoro-4-(6-methylpyridin-2-yl)benzyl)-N-((1S,2S)-2-hydroxycyclohexyl)-1H-pyrrolo[3,2-b]pyridine-3-carboxamide] was tested, and the “pEC50 for positive allosteric modulation” value [1] was 6.9.

Reference: patent US10072005B2, “4-azaindole derivatives” (EISAI R&D MANAGEMENT CO., LTD., priority 2013, dated 2018)
